Measured values reported in US12568972B2, “Pyridazinol compounds and derivatives, preparation methods, herbicidal compositions and applications thereof” (Qingdao Kingagroot Chemical Compound Co., Ltd., priority 2018, dated 2026).

Assays:
Assay in all cases: Post-emergence test, weed control effect
Assay type in all cases: in vivo
Conditions in all cases: after 3 weeks
Veronica polita = system: Veronica polita
Summary of the method: (§1)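 Weeds grown from seed in soil-filled pots in a greenhouse were sprayed at the 2-3 leaf stage, 2-3 weeks after sowing, with compound in acetone/Tween-80/water plus 80% vegetable oil methyl ester synergist at 1500 g/ha. Fresh-weight inhibition was scored on a 0-10 scale after 3 weeks.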

Amaranthus retroflexus = system: Amaranthus retroflexus
Summary of the method: as §1

Rorippa indica = system: Rorippa indica
Summary of the method: as §1

Chenopodiaceae = system: Chenopodiaceae
Summary of the method: as §1

Oc1cc(C(F)(F)F)nnc1-c1ccccn1 [Compound 263]
10: weed control effect (activity level), Veronica polita (Veronica polita; dose 2000 g/ha) | weed control effect (activity level), Amaranthus retroflexus (Amaranthus retroflexus; dose 2000 g/ha) | weed control effect (activity level), Rorippa indica (Rorippa indica; dose 2000 g/ha) | weed control effect (activity level), Chenopodiaceae (Chenopodiaceae; dose 2000 g/ha)

Oc1cc(C(F)(F)F)nnc1-c1ccncc1Cl [Compound 279]
10: weed control effect (activity level), Veronica polita (Veronica polita; dose 2000 g/ha) | weed control effect (activity level), Amaranthus retroflexus (Amaranthus retroflexus; dose 2000 g/ha) | weed control effect (activity level), Rorippa indica (Rorippa indica; dose 2000 g/ha) | weed control effect (activity level), Chenopodiaceae (Chenopodiaceae; dose 2000 g/ha)

CC(C)OC(=O)Nc1ccc(-c2nnc(C(F)(F)F)cc2O)cn1 [Compound 323]
10: weed control effect (activity level), Veronica polita (Veronica polita; dose 2000 g/ha) | weed control effect (activity level), Amaranthus retroflexus (Amaranthus retroflexus; dose 2000 g/ha) | weed control effect (activity level), Rorippa indica (Rorippa indica; dose 2000 g/ha) | weed control effect (activity level), Chenopodiaceae (Chenopodiaceae; dose 2000 g/ha)

C#Cc1ccc(-c2nnc(C(F)(F)F)cc2O)nn1 [Compound 349]
10: weed control effect (activity level), Veronica polita (Veronica polita; dose 2000 g/ha) | weed control effect (activity level), Amaranthus retroflexus (Amaranthus retroflexus; dose 2000 g/ha) | weed control effect (activity level), Rorippa indica (Rorippa indica; dose 2000 g/ha) | weed control effect (activity level), Chenopodiaceae (Chenopodiaceae; dose 2000 g/ha)

Oc1cc(C(F)(F)F)nnc1-c1ccc2ccccc2c1 [Compound 370]
10: weed control effect (activity level), Veronica polita (Veronica polita; dose 2000 g/ha) | weed control effect (activity level), Amaranthus retroflexus (Amaranthus retroflexus; dose 2000 g/ha) | weed control effect (activity level), Rorippa indica (Rorippa indica; dose 2000 g/ha) | weed control effect (activity level), Chenopodiaceae (Chenopodiaceae; dose 2000 g/ha)

Oc1cc(C(F)(F)F)nnc1-c1ccc2cc(Cl)ccc2c1 [Compound 371]
10: weed control effect (activity level), Veronica polita (Veronica polita; dose 2000 g/ha) | weed control effect (activity level), Amaranthus retroflexus (Amaranthus retroflexus; dose 2000 g/ha) | weed control effect (activity level), Rorippa indica (Rorippa indica; dose 2000 g/ha) | weed control effect (activity level), Chenopodiaceae (Chenopodiaceae; dose 2000 g/ha)

Oc1cc(C(F)(F)F)nnc1-c1cccc2ccccc12 [Compound 380]
10: weed control effect (activity level), Veronica polita (Veronica polita; dose 2000 g/ha) | weed control effect (activity level), Amaranthus retroflexus (Amaranthus retroflexus; dose 2000 g/ha) | weed control effect (activity level), Rorippa indica (Rorippa indica; dose 2000 g/ha) | weed control effect (activity level), Chenopodiaceae (Chenopodiaceae; dose 2000 g/ha)

Cc1ccc(-c2nnc(C(F)(F)F)cc2O)o1 [Compound 414]
10: weed control effect (activity level), Veronica polita (Veronica polita; Dose 3000 g/ha) | weed control effect (activity level), Amaranthus retroflexus (Amaranthus retroflexus; Dose 3000 g/ha) | weed control effect (activity level), Rorippa indica (Rorippa indica; Dose 3000 g/ha) | weed control effect (activity level), Chenopodiaceae (Chenopodiaceae; Dose 3000 g/ha)

Oc1cc(C(F)(F)F)nnc1-c1cc(C(F)(F)F)co1 [Compound 418]
10: weed control effect (activity level), Veronica polita (Veronica polita; Dose 3000 g/ha) | weed control effect (activity level), Amaranthus retroflexus (Amaranthus retroflexus; Dose 3000 g/ha) | weed control effect (activity level), Rorippa indica (Rorippa indica; Dose 3000 g/ha) | weed control effect (activity level), Chenopodiaceae (Chenopodiaceae; Dose 3000 g/ha)

Cc1cc(C)c(-c2nnc(C(F)(F)F)cc2O)o1 [Compound 439]
10: weed control effect (activity level), Veronica polita (Veronica polita; Dose 3000 g/ha) | weed control effect (activity level), Amaranthus retroflexus (Amaranthus retroflexus; Dose 3000 g/ha) | weed control effect (activity level), Rorippa indica (Rorippa indica; Dose 3000 g/ha) | weed control effect (activity level), Chenopodiaceae (Chenopodiaceae; Dose 3000 g/ha)

Cc1cc(-c2nnc(C(F)(F)F)cc2O)nn1C [Compound 540]
10: weed control effect (activity level), Veronica polita (Veronica polita; Dose 3000 g/ha) | weed control effect (activity level), Amaranthus retroflexus (Amaranthus retroflexus; Dose 3000 g/ha) | weed control effect (activity level), Rorippa indica (Rorippa indica; Dose 3000 g/ha) | weed control effect (activity level), Chenopodiaceae (Chenopodiaceae; Dose 3000 g/ha)

Cc1n[nH]c(C)c1-c1nnc(C(F)(F)F)cc1O [Compound 543]
10: weed control effect (activity level), Veronica polita (Veronica polita; Dose 3000 g/ha) | weed control effect (activity level), Amaranthus retroflexus (Amaranthus retroflexus; Dose 3000 g/ha) | weed control effect (activity level), Rorippa indica (Rorippa indica; Dose 3000 g/ha) | weed control effect (activity level), Chenopodiaceae (Chenopodiaceae; Dose 3000 g/ha)

Cc1[nH]nc(-c2nnc(C(F)(F)F)cc2O)c1C [Compound 544]
10: weed control effect (activity level), Veronica polita (Veronica polita; Dose 3000 g/ha) | weed control effect (activity level), Amaranthus retroflexus (Amaranthus retroflexus; Dose 3000 g/ha) | weed control effect (activity level), Rorippa indica (Rorippa indica; Dose 3000 g/ha) | weed control effect (activity level), Chenopodiaceae (Chenopodiaceae; Dose 3000 g/ha)
